The target of this assay is T1, Amine oxidase [flavin-containing] B (Rattus norvegicus, UniProt P19643).
T1 sequence (P19643 whole entry): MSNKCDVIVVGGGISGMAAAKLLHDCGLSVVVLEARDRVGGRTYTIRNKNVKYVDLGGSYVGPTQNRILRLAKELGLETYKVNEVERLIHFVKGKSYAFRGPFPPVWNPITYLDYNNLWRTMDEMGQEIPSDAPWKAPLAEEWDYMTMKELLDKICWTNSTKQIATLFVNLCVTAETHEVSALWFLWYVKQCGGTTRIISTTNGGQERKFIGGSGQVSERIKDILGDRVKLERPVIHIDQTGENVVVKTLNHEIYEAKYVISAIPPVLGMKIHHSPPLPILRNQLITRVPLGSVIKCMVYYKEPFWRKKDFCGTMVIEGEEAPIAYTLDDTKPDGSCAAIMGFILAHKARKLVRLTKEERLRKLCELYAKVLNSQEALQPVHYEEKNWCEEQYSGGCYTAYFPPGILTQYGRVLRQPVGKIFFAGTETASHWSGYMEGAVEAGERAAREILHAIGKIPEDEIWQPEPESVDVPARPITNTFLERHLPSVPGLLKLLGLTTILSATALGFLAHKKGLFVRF
Description: Enzyme Assay. The settings on record: 37 °C. Here is the method:
MAO-B activity was measured by the spectrofluorimetric method of Morinan and Garratt.

Structures are written as SMILES.

Take `Cc1nc(-c2ccccc2)sc1C(=O)CCN1CCOCC1` [Thiazolyl derivative, 4]: the IC50 (commonly the concentration needed to halve the response being measured) was determined as 7.8 µM.
As for `Cc1nc(-c2ccccc2)sc1C(=O)CCN1CCCCC1` [Thiazolyl derivative, 3], the figure is 43.1 µM.
Then `CCN(CC)CCC(=O)c1sc(NC)nc1C` [Thiazolyl derivative, 1], with 82.3 µM; and `COc1ccc(-c2csc(NC(=O)CN3CCCCC3)n2)cc1` [Thiazolyl derivative, 10], with 411 µM.
In turn, `COc1ccc(-c2csc(NC(=O)CCN3CCCCC3)n2)cc1` [Thiazolyl derivative, 11] came in with an IC50 of 313 µM. This IC50 and that of the compound before are within 1.5-fold of each other.
`O=C(CN1CCCCC1)Nc1nc(-c2ccccc2)cs1` [Thiazolyl derivative, 9] displayed an IC50 of 90.2 µM.
As for `CCN(CC)CCC(=O)c1sc(-c2ccc(C)cc2)nc1C` [Thiazolyl derivative, 2], the figure is 7.5 µM.

For the origin of these results see BindingDB's records for doi:10.3109/14756369909030324 (University of Catania, 1999).
